Source: US20080300243A1, “Amide Derivatives as Ion-Channel Ligands and Pharmaceutical Compositions and Methods of Using the Same” (priority 2005, published 2008)

What was measured:
[1] = molecular target: VR1 (Homo sapiens, UniProt Q8NER1); experiment: Calcium uptake assay, low pH (proton) stimulus; format: cell-based; parameters: expressed in transfected cells; host or cells: T-REx HEK 293 (Invitrogen), pcDNA5/TO vector; details: low pH agonist, HEK 293 cells expressing hVR1; for inhibition at 0.3 µM / Low pH % Inhib. @ 0.3 μM: 0.3 μM compound; for inhibition at 0.3 µM: read-out: Low pH % Inhib. @ 0.3 μM
[2] = Half-life in human liver microsomes (HLM); format: in vitro ADME; details: 1 μM compound, 0.78 mg/mL HLM, 37° C., NADPH; for half-life at 1 μM: human, human liver microsomes (HLM, HL101), pH 7.4
Description: Test compounds (1 μM) were incubated with 3.3 mM MgCl2 and 0.78 mg/mL HLM (HL101) in 100 mM potassium phosphate buffer (pH 7.4) at 37° C. on the 96-deep well plate. The reaction mixture was split into two groups, a non-P450 and a P450 group. NADPH was only added to the reaction mixture of the P450 group. An aliquot of samples of P450 group was collected at 0, 10, 30, and 60 min time point, where 0 min time point indicated the time when NADPH was added into the reaction mixture of P450 group. An aliquot of samples of non-P450 group was collected at −10 and 65 min time point. Collected aliquots were extracted with acetonitrile solution containing an internal standard. The precipitated protein was spun down in centrifuge (2000 rpm, 15 min). The compound concentration in supernatant was measured by LC/MS/MS system.
The half-life value was obtained by plotting the natural logarithm of the peak area ratio of compounds/internal standard versus time. The slope of the line of best fit through the points yields the rate of metabolism (k). This was converted to a half-life value using following equations:
Exemplary compounds of the invention were tested (1 μM), and were incubated with 3.3 mM MgCl2 and 0.78 mg/mL HLM (HL101) in 100 mM potassium phosphate buffer (pH 7.4) at 37° C. on the 96-deep well plate. The reaction mixture was split into two groups, a non-P450 and a P450 group. NADPH was only added to the reaction mixture of the P450 group. An aliquot of samples of the P450 group was collected at 0, 10, 30, and 60 minute time points, where the 0 minute time point indicated the time when NADPH was added into the reaction mixture of the P450 group. An aliquot of samples of the non-P450 group was collected at −10 and 65 minute time points. Collected aliquots were extracted with an acetonitrile solution containing an internal standard. The precipitated protein was spun down in a centrifuge (2000 rpm, 15 rain). The compound concentration in supernatant was measured by LC/MS/MS system. The half-life value (T1/2) was obtained by plotting the natural logarithm of the peak area ratio of compounds/internal standard versus time. The slope of the line of best fit through the points yields the rate of metabolism (k). This was converted to a half-life value using following equations: Half-life=ln 2/k.

Sequence of VR1 (Q8NER1 whole entry): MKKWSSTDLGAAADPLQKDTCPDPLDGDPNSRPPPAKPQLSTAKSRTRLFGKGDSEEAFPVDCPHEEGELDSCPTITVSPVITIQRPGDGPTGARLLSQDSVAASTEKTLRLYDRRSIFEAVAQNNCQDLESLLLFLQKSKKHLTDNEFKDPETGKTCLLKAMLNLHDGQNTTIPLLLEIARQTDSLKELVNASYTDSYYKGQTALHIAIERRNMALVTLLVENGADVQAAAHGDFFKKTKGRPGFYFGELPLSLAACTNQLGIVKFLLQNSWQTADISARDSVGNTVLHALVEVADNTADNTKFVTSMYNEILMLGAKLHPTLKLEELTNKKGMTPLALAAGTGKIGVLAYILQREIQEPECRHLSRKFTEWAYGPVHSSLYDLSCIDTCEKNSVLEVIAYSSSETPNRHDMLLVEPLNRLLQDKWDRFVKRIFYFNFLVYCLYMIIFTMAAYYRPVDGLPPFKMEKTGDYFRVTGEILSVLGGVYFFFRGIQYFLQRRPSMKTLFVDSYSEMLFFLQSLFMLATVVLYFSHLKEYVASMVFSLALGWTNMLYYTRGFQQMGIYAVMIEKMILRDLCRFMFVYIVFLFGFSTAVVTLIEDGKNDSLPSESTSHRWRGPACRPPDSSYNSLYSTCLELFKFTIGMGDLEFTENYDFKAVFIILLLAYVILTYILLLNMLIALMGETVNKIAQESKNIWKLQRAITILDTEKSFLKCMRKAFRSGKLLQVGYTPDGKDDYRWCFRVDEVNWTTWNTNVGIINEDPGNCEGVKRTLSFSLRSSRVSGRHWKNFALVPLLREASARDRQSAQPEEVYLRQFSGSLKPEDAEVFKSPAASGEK

Row | SMILES | inhibition at 0.3 µM ([1]; HEK293) | also measured
1 | Cc1cc(C#CC(C)(C)C)ccc1C(=O)Nc1cnc2ccccc2c1 [Compound 181] | 102% | half-life at 1 μM [2]: 61.2 min
2 | CCOc1cc(C(=O)Nc2cccc3cnccc23)ccc1C#CC(C)(C)C [Compound 65] | 109% | half-life at 1 μM [2]: 25.2 min
3 | CN1CCCc2ccc(NC(=O)c3ccc(C#CC(C)(C)C)cc3)cc21 [Compound 74] | 119% | half-life at 1 μM [2]: 73.2 min
4 | O=C(Nc1ccc2c(c1)OCC(CO)O2)c1ccc(C#CC2CCCC2)cc1 (stereo not drawn) [Compound 112] | 88% | half-life at 1 μM [2]: 48 min
5 | CC(C)(C)C#Cc1ccc(C(=O)Nc2cccc3cnccc23)cc1OCCN1CCOCC1 [Compound 60] |  | Half Life [2]: 21 min
6 | Cc1cc(/C=C/C(F)(F)F)ccc1C(=O)Nc1ccc2cc(CO)cnc2c1 [Compound 228] | 100% | half-life at 1 μM [2]: 76.2 min
7 | O=C(Nc1ccc2c(c1)OCC(CO)N2)c1ccc(C#CC2CCCC2)cc1F (stereo not drawn) [Compound 126] | 96% | half-life at 1 μM [2]: 112 min
8 | C/C(=C\c1ccc(C(=O)Nc2cccc3cnccc23)cc1)C(F)(F)F [Compound 89] | 92% | half-life at 1 μM [2]: 31.8 min
9 | Cc1nc2cc(NC(=O)c3ccc(C#CC(F)(F)F)cc3)ccc2s1 [Compound 52] | 101% | half-life at 1 μM [2]: 1.8 min
10 | O=C(Nc1cnc2ccccc2c1)c1ccc(C#CC(F)(F)F)cc1 [Compound 46] |  | half-life at 1 μM [2]: 1.2 min
11 | COc1cc(/C=C/C(F)(F)F)ccc1C(=O)Nc1ccc2c(c1)OCCN2 [Compound 122] | 19% | half-life at 1 μM [2]: 75 min
12 | CC(C)(C)C#Cc1ccc(C(=O)Nc2ccc3c(c2)OCC(CO)N3)c(Cl)c1 (stereo not drawn) [Compound 158] | 107% | half-life at 1 μM [2]: 85.8 min
13 | O=C(Nc1ccc2c(c1)OCC(CO)N2)c1c(F)cc(C#CC2CC2)cc1F (stereo not drawn) [Compound 129] | 104% | half-life at 1 μM [2]: 103 min
14 | Cc1cc(C#CC2CCCC2)ccc1C(=O)Nc1ccc2c(c1)OCC(CO)N2 (stereo not drawn) [Compound 125] | 112% | half-life at 1 μM [2]: 40.2 min
15 | Cc1cc(C#CC(C)(C)C)ccc1C(=O)Nc1ccc2c(c1)OC[C@@H](CO)N2 [Compound 184] | 102% | half-life at 1 μM [2]: 38.4 min
16 | Cc1cc(C#CC2CC2)ccc1C(=O)Nc1ccc2c(c1)OCC(CO)N2 (stereo not drawn) [Compound 124] | 112% | half-life at 1 μM [2]: 60.6 min
17 | C/C(=C\c1ccc(C(=O)Nc2ccc3c(c2)OCCN3)cc1)C(F)(F)F [Compound 93] | 105% | half-life at 1 μM [2]: 39 min
18 | Cc1nc2cc(NC(=O)c3ccc(C#CC(C)(C)C)cc3C)ccc2s1 [Compound 162] | 89% | half-life at 1 μM [2]: 85.8 min
19 | CC(C)(C)C#Cc1ccc(C(=O)Nc2cccc3cnccc23)cc1 [Compound 31] | 108% | half-life at 1 μM [2]: 24 min
20 | Cc1nc2cc(NC(=O)c3ccc(C#CC(C)(C)C)cc3F)ccc2s1 [Compound 173] | 109% | 
21 | CN1CCCc2ccc(NC(=O)c3ccc(C#CC(C)(C)C)nc3)cc21 [Compound 85] | 34% | 

Row | SMILES | inhibition at 0.3 µM ([1]; HEK293) | also measured
22 | CC(C)(C)C#Cc1cc(F)c(C(=O)Nc2ccc3c(c2)OCC(CO)N3)c(F)c1 (stereo not drawn) [Compound 168] | 104% | 
23 | C/C(=C\C(F)(F)F)c1ccc(C(=O)Nc2ccc3c(c2)OCCO3)cc1 [Compound 99] | 94% | 
24 | O=C(Nc1ccc2c(c1)OCCO2)c1ccc(C#CC2CCCC2)cc1 [Compound 100] | 42% | 
25 | CC(C)(C)C#Cc1ccc(C(=O)Nc2cccc3cnccc23)c(Cl)c1 [Compound 161] | 95% | 
26 | CN1CCCc2ccc(NC(=O)c3ccc(C#CC4CCCC4)cc3)cc21 [Compound 98] | 78% | 
27 | C/C(=C\c1ccc(C(=O)Nc2ccc3c(c2)OCCO3)cc1)C(F)(F)F [Compound 102] | 91% | 
28 | Cc1cc(C(=O)Nc2cccc3cnccc23)ccc1C#CC(F)(F)F [Compound 75] | 102% | 
29 | Cc1cc(C#CC(C)(C)C)ccc1C(=O)Nc1cccc2c(Cl)cccc12 [Compound 199] | 67% | 
30 | O=C(Nc1ccc2c(c1)OCCN2)c1ccc(/C=C/C(F)(F)F)cc1 [Compound 63] |  | Half Life [2]: 24 min
31 | Cc1nc2cc(NC(=O)c3ccc(/C=C/C(F)(F)F)cc3F)ccc2s1 [Compound 177] | 85% | 
32 | Cc1nc2cc(NC(=O)c3ccc(C#CC(C)(C)C)cc3C)ccc2[nH]1 [Compound 215] | 86% | 
33 | O=C(Nc1ccc2sc(CO)nc2c1)c1ccc(C#CC(F)(F)F)cc1 [Compound 54] | 76% | 
34 | Cc1cc(/C=C/C(F)(F)F)ccc1C(=O)Nc1ccc2ncccc2c1 [Compound 222] | 82% | 
35 | Cc1nc2cc(NC(=O)c3ccc(C#CC(C)(C)C)cc3Cl)ccc2s1 [Compound 165] | 107% | 
36 | COc1cc(NC(=O)c2ccc(/C=C/C(C)C)cc2)cc(C(F)(F)F)c1 [Compound 240] |  | inhibition at 1 µM ([1]; HEK293, 1 μM compound, read-out: Low pH % Inhib. (at 1 μM)): 75%
37 | CN1CCOc2ccc(NC(=O)c3ccc(/C=C/C(F)(F)F)cc3)cc21 [Compound 88] | 48% | 
38 | Cc1cc(C#CC(C)(C)C)ccc1C(=O)Nc1ccc2[nH]c(=O)oc2c1 [Compound 217] | 59% | 
39 | CC(C)(C)C#Cc1ccc(C(=O)Nc2ccc3c(c2)OC[C@H](CO)N3)c(Cl)c1 [Compound 182] | 103% | 
40 | C/C(=C/C(C)(C)C)c1ccc(C(=O)Nc2ccc3ncccc3c2)cc1 [Compound 18] | 12% | 
41 | O=C(Nc1ccc2c(c1)OCC(CO)O2)c1ccc(C#CC2CC2)cc1F (stereo not drawn) [Compound 150] | 75% | 
42 | O=C(Nc1ccc2c(c1)OCC(CO)O2)c1ccc(/C=C/C(F)(F)F)cc1 (stereo not drawn) [Compound 97] | 101% | 

Row | SMILES | inhibition at 0.3 µM ([1]; HEK293) | also measured
43 | COc1cc(/C=C\C(F)(F)F)ccc1C(=O)Nc1ccc2c(c1)OCCN2 [Compound 120] | 19% | 
44 | Cc1cc(/C=C/C(F)(F)F)ccc1C(=O)Nc1cccc2cnccc12 [Compound 77] | 90% | 
45 | Cc1cc(/C=C/C(F)(F)F)ccc1C(=O)Nc1ccc2c(c1)OCC(O)CN2 (stereo not drawn) [Compound 189] | 87% | 
46 | O=C(Nc1ccc2c(c1)OCCN2)c1ccc(/C=C\C(F)(F)F)cc1F [Compound 135] | 29% | 
47 | Cc1cc(/C=C/C(F)(F)F)ccc1C(=O)Nc1cccc2c(Cl)nccc12 [Compound 200] | 55% | 
48 | O=C(Nc1ccc2c(c1)OCCO2)c1ccc(/C=C/C(F)(F)F)cc1F [Compound 142] | 70% | 
49 | Cc1cc(C#CC2CC2)ccc1C(=O)Nc1ccc2c(c1)OCC(CO)O2 (stereo not drawn) [Compound 151] | 108% | 
50 | CC(=CC(F)(F)F)c1ccc(C(=O)Nc2cccc3cnccc23)cc1 [Compound 76] | 88% | 
51 | CC(C)(C)C#Cc1ccc(C(=O)Nc2cnc3ccccc3c2)cc1 [Compound 32] |  | Low pH % Inhib. @ 0.3 μM [1]: 101%
52 | Cc1cc(C#CC2CCCC2)ccc1C(=O)Nc1ccc2c(c1)OCC(CO)O2 (stereo not drawn) [Compound 141] | 87% | 
53 | Cc1cc(C#CC2CCCC2)ccc1C(=O)Nc1ccc2c(c1)OCCN2 [Compound 139] | 95% | 
54 | CC(C)(C)C#Cc1ccc(C(=O)Nc2ccc3c(c2)NCC3(C)C)cc1 [Compound 69] | 103% | 
55 | Cn1ccc2cc(NC(=O)c3ccc(/C=C/C(C)(C)C)cc3)ccc21 [Compound 42] | 98% | 
56 | Cc1cc(C#CC2CC2)ccc1C(=O)Nc1ccc2c(c1)OCCO2 [Compound 152] | 73% | 
57 | Cc1nc2cc(NC(=O)c3c(F)cc(C#CC(C)(C)C)cc3F)ccc2s1 [Compound 180] | 99% | 
58 | CC(C)(C)/C=C/c1ccc(C(=O)Nc2cnc3ccccc3c2)cc1 [Compound 41] | 101% | 
59 | Cc1nc2cc(NC(=O)c3ccc(/C=C/C(F)(F)F)cc3)ccc2s1 [Compound 53] | 81% | 
60 | CC(C)/C=C/c1ccc(C(=O)Nc2ccc3ncccc3c2)cc1 [Compound 11] | 34% | 
61 | O=C(Nc1ccc2c(c1)OCC(CO)O2)c1ccc(/C=C/C(F)(F)F)cc1 (single isomer, unassigned) [Compound 108] |  | Low pH % Inhib. @ 0.3 μM [1]: 116%
